Source: patent publication US5530126A, “Process for the preparation of substituted 6-(pyrazol-3yl)-1,4-benzoxazin-3-ones” (Monsanto Company, priority 1994, dated 1996)

Experiments:
Assay type in all cases: in vivo
Annual bluegrass [1] = assay: Pre-emergence herbicide test; details: read-out: % plant inhibition (Anbg); for inhibition at 11210 g/ha: 11.21 kg/ha; for inhibition at 1120 g/ha: 1.12 kg/ha
Outline: (§1)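 Greenhouse pans: topsoil compacted to within 0.95-1.27 cm of top, seeds laid on surface, active ingredient (organic solvent or water carrier) applied, untreated topsoil cover added. Watered from below; % inhibition at ~11 d.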

Barnyardgrass [2] = assay: Pre-emergence herbicide test; details: Echinochloa crus-galli, read-out: % plant inhibition (Bygr); for inhibition at 11210 g/ha: 11.21 kg/ha; for inhibition at 1120 g/ha: 1.12 kg/ha
Outline: as §1

Cocklebur [3] = assay: Pre-emergence herbicide test; details: Xanthium strumarium, read-out: % plant inhibition (Cobu); for inhibition at 11210 g/ha: 11.21 kg/ha; for inhibition at 1120 g/ha: 1.12 kg/ha
Outline: as §1

Downy Brome [4] = assay: Pre-emergence herbicide test; details: Bromus tectorum, read-out: % plant inhibition (Dobr); for inhibition at 11210 g/ha: 11.21 kg/ha; for inhibition at 1120 g/ha: 1.12 kg/ha
Outline: as §1

Indian Mustard [5] = assay: Pre-emergence herbicide test; details: Brassica juncea, read-out: % plant inhibition (Inmu); for inhibition at 11210 g/ha: 11.21 kg/ha; for inhibition at 1120 g/ha: 1.12 kg/ha
Outline: as §1

Morningglory [6] = assay: Pre-emergence herbicide test; details: Ipomoea, read-out: % plant inhibition (Mogl); for inhibition at 11210 g/ha: 11.21 kg/ha; for inhibition at 1120 g/ha: 1.12 kg/ha
Outline: as §1

Seedling johnsongrass [7] = assay: Pre-emergence herbicide test; details: Sorghum halepense, read-out: % plant inhibition (Sejg); for inhibition at 11210 g/ha: 11.21 kg/ha; for inhibition at 1120 g/ha: 1.12 kg/ha
Outline: as §1

Velvetleaf [8] = assay: Pre-emergence herbicide test; details: Abutilon theophrasti, read-out: % plant inhibition (Vele); for inhibition at 11210 g/ha: 11.21 kg/ha; for inhibition at 1120 g/ha: 1.12 kg/ha
Outline: as §1

Wild buckwheat [9] = assay: Pre-emergence herbicide test; details: Fallopia convolvulus, read-out: % plant inhibition (Wibw); for inhibition at 11210 g/ha: 11.21 kg/ha; for inhibition at 1120 g/ha: 1.12 kg/ha
Outline: as §1

Yellow nutsedge [10] = assay: Pre-emergence herbicide test; details: Cyperus, read-out: % plant inhibition (Yens); for inhibition at 11210 g/ha: 11.21 kg/ha; for inhibition at 1120 g/ha: 1.12 kg/ha
Outline: as §1

Annual bluegrass [11] = assay: Post-emergence herbicide test; details: read-out: % plant inhibition (Anbg); for inhibition at 11210 g/ha: 11.21 kg/ha; for inhibition at 1120 g/ha: 1.12 kg/ha
Outline: (§2)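 Soil pans, sub-irrigated; plants sprayed at 2–3 wk; 170.3 kPa atomizer; 1870 L/Ha; ~0.4% v/v emulsifier; % inhibition vs control ~11 d post-spray, sometimes ~25 d.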

Barnyardgrass [12] = assay: Post-emergence herbicide test; details: Echinochloa crus-galli, read-out: % plant inhibition (Bygr); for inhibition at 11210 g/ha: 11.21 kg/ha; for inhibition at 1120 g/ha: 1.12 kg/ha
Outline: as §2

Cocklebur [13] = assay: Post-emergence herbicide test; details: Xanthium strumarium, read-out: % plant inhibition (Cobu); for inhibition at 11210 g/ha: 11.21 kg/ha; for inhibition at 1120 g/ha: 1.12 kg/ha
Outline: as §2

Downy Brome [14] = assay: Post-emergence herbicide test; details: Bromus tectorum, read-out: % plant inhibition (Dobr); for inhibition at 11210 g/ha: 11.21 kg/ha; for inhibition at 1120 g/ha: 1.12 kg/ha
Outline: as §2

Indian Mustard [15] = assay: Post-emergence herbicide test; details: Brassica juncea, read-out: % plant inhibition (Inmu); for inhibition at 11210 g/ha: 11.21 kg/ha; for inhibition at 1120 g/ha: 1.12 kg/ha
Outline: as §2

Morningglory [16] = assay: Post-emergence herbicide test; details: Ipomoea, read-out: % plant inhibition (Mogl); for inhibition at 11210 g/ha: 11.21 kg/ha; for inhibition at 1120 g/ha: 1.12 kg/ha
Outline: as §2

Seedling johnsongrass [17] = assay: Post-emergence herbicide test; details: Sorghum halepense, read-out: % plant inhibition (Sejg); for inhibition at 11210 g/ha: 11.21 kg/ha; for inhibition at 1120 g/ha: 1.12 kg/ha
Outline: as §2

Velvetleaf [18] = assay: Post-emergence herbicide test; details: Abutilon theophrasti, read-out: % plant inhibition (Vele); for inhibition at 11210 g/ha: 11.21 kg/ha; for inhibition at 1120 g/ha: 1.12 kg/ha
Outline: as §2

Wild buckwheat [19] = assay: Post-emergence herbicide test; details: Fallopia convolvulus, read-out: % plant inhibition (Wibw); for inhibition at 11210 g/ha: 11.21 kg/ha; for inhibition at 1120 g/ha: 1.12 kg/ha
Outline: as §2

Yellow nutsedge [20] = assay: Post-emergence herbicide test; details: Cyperus, read-out: % plant inhibition (Yens); for inhibition at 11210 g/ha: 11.21 kg/ha; for inhibition at 1120 g/ha: 1.12 kg/ha
Outline: as §2

Compound	inhibition at 11210 g/ha (Annual bluegrass [1])	inhibition at 11210 g/ha (Barnyardgrass [2])	inhibition at 11210 g/ha (Cocklebur [3])	inhibition at 11210 g/ha (Downy Brome [4])	inhibition at 11210 g/ha (Indian Mustard [5])	inhibition at 11210 g/ha (Morningglory [6])	inhibition at 11210 g/ha (Seedling johnsongrass [7])	inhibition at 11210 g/ha (Velvetleaf [8])	inhibition at 11210 g/ha (Wild buckwheat [9])	inhibition at 11210 g/ha (Yellow nutsedge [10])	inhibition at 11210 g/ha (Annual bluegrass [11])	inhibition at 11210 g/ha (Barnyardgrass [12])	inhibition at 11210 g/ha (Cocklebur [13])	inhibition at 11210 g/ha (Downy Brome [14])	inhibition at 11210 g/ha (Indian Mustard [15])	inhibition at 11210 g/ha (Morningglory [16])	inhibition at 11210 g/ha (Seedling johnsongrass [17])	inhibition at 11210 g/ha (Velvetleaf [18])	inhibition at 11210 g/ha (Wild buckwheat [19])	inhibition at 11210 g/ha (Yellow nutsedge [20])	further results
Cn1nc(C(F)(F)F)c(Cl)c1-c1cc(F)ccc1F [Compound 69]	0%	0%	0%	0%	0%	30%	0%	50%	0%	0%	0%	0%	0%	0%	0%	10%	0%	10%	0%	0%	
Cn1nc(-c2cc(CBr)c(Cl)cc2F)c(Cl)c1C(F)(F)F [Compound 108, 3-[5-(bromomethyl)-4-chloro-2-fluorophenyl]-4-chloro-1-methyl-5-(trifluoromethyl)-1H-pyrazole]	50%	100%	80%	100%	100%	90%	90%	100%	100%	20%	90%	100%	100%	100%	100%	100%	90%	100%	100%	0%	
Cn1nc(-c2cc(S)c(Cl)cc2Cl)c(Cl)c1C(F)(F)F [Compound 93]																					inhibition at 1120 g/ha (Annual bluegrass [1]): 0%; inhibition at 1120 g/ha (Barnyardgrass [2]): 0%; inhibition at 1120 g/ha (Cocklebur [3]): 20%; inhibition at 1120 g/ha (Downy Brome [4]): 0%; inhibition at 1120 g/ha (Indian Mustard [5]): 10%; inhibition at 1120 g/ha (Morningglory [6]): 30%; inhibition at 1120 g/ha (Seedling johnsongrass [7]): 0%; inhibition at 1120 g/ha (Velvetleaf [8]): 20%; inhibition at 1120 g/ha (Wild buckwheat [9]): 20%; inhibition at 1120 g/ha (Yellow nutsedge [10]): 0%; inhibition at 1120 g/ha (Annual bluegrass [11]): 10%; inhibition at 1120 g/ha (Barnyardgrass [12]): 70%; inhibition at 1120 g/ha (Cocklebur [13]): 70%; inhibition at 1120 g/ha (Downy Brome [14]): 50%; inhibition at 1120 g/ha (Indian Mustard [15]): 60%; inhibition at 1120 g/ha (Morningglory [16]): 60%; inhibition at 1120 g/ha (Seedling johnsongrass [17]): 40%; inhibition at 1120 g/ha (Velvetleaf [18]): 90%; inhibition at 1120 g/ha (Wild buckwheat [19]): 90%; inhibition at 1120 g/ha (Yellow nutsedge [20]): 0%
Cn1nc(C(F)F)c(Cl)c1-c1cc(F)ccc1F [Compound 62]	0%	20%	0%	0%	20%	30%	30%	60%	20%	0%	0%	0%	0%	0%	0%	0%	0%	10%	0%	0%	
Cn1nc(C(F)(F)F)c(Cl)c1-c1ccc(Cl)cc1F [Compound 79]	90%	80%	30%	80%	100%	100%	80%	100%	100%	20%	60%	20%	20%	20%	90%	60%	30%	100%	100%	10%	
CCS(=O)(=O)Nc1cc(-c2nn(C)c(C(F)(F)F)c2Cl)c(Cl)cc1Cl [Compound 92]																					inhibition at 1120 g/ha (Annual bluegrass [1]): 0%; inhibition at 1120 g/ha (Barnyardgrass [2]): 0%; inhibition at 1120 g/ha (Cocklebur [3]): 20%; inhibition at 1120 g/ha (Downy Brome [4]): 0%; inhibition at 1120 g/ha (Indian Mustard [5]): 20%; inhibition at 1120 g/ha (Morningglory [6]): 80%; inhibition at 1120 g/ha (Seedling johnsongrass [7]): 0%; inhibition at 1120 g/ha (Velvetleaf [8]): 90%; inhibition at 1120 g/ha (Wild buckwheat [9]): 80%; inhibition at 1120 g/ha (Yellow nutsedge [10]): 0%; inhibition at 1120 g/ha (Annual bluegrass [11]): 30%; inhibition at 1120 g/ha (Barnyardgrass [12]): 30%; inhibition at 1120 g/ha (Cocklebur [13]): 80%; inhibition at 1120 g/ha (Downy Brome [14]): 50%; inhibition at 1120 g/ha (Indian Mustard [15]): 80%; inhibition at 1120 g/ha (Morningglory [16]): 100%; inhibition at 1120 g/ha (Seedling johnsongrass [17]): 40%; inhibition at 1120 g/ha (Velvetleaf [18]): 100%; inhibition at 1120 g/ha (Wild buckwheat [19]): 80%; inhibition at 1120 g/ha (Yellow nutsedge [20]): 20%
CCOC(=O)C(C)Oc1cc(-c2nn(C)c(C(F)(F)F)c2Cl)c(F)cc1Cl (centres unmarked) [Compound 229, 2-(2-Chloro-5-(4-chloro-1-methyl-5-(trifluoromethyl)-1H-pyrazol-3-yl)-4-fluorophenoxy)propanoic acid, ethyl ester]																					inhibition at 1120 g/ha (Annual bluegrass [1]): 100%; inhibition at 1120 g/ha (Barnyardgrass [2]): 90%; inhibition at 1120 g/ha (Cocklebur [3]): 90%; inhibition at 1120 g/ha (Downy Brome [4]): 100%; inhibition at 1120 g/ha (Indian Mustard [5]): 100%; inhibition at 1120 g/ha (Morningglory [6]): 100%; inhibition at 1120 g/ha (Seedling johnsongrass [7]): 100%; inhibition at 1120 g/ha (Velvetleaf [8]): 100%; inhibition at 1120 g/ha (Wild buckwheat [9]): 100%; inhibition at 1120 g/ha (Yellow nutsedge [10]): 60%; inhibition at 1120 g/ha (Annual bluegrass [11]): 70%; inhibition at 1120 g/ha (Barnyardgrass [12]): 100%; inhibition at 1120 g/ha (Cocklebur [13]): 100%; inhibition at 1120 g/ha (Downy Brome [14]): 90%; inhibition at 1120 g/ha (Indian Mustard [15]): 100%; inhibition at 1120 g/ha (Morningglory [16]): 100%; inhibition at 1120 g/ha (Seedling johnsongrass [17]): 100%; inhibition at 1120 g/ha (Velvetleaf [18]): 100%; inhibition at 1120 g/ha (Wild buckwheat [19]): 100%; inhibition at 1120 g/ha (Yellow nutsedge [20]): 40%
Cn1nc(-c2cc(C=NOCC(=O)O)c(Cl)cc2F)c(Cl)c1C(F)(F)F [Compound 130, ((((2-chloro-5-(4-chloro-1-methyl-5-(trifluoromethyl)-1H-pyrazol-3-yl)-4-fluorophenyl)methylene)amino)oxy)acetic acid]																					inhibition at 1120 g/ha (Annual bluegrass [1]): 0%; inhibition at 1120 g/ha (Barnyardgrass [2]): 30%; inhibition at 1120 g/ha (Cocklebur [3]): 90%; inhibition at 1120 g/ha (Downy Brome [4]): 30%; inhibition at 1120 g/ha (Indian Mustard [5]): 100%; inhibition at 1120 g/ha (Morningglory [6]): 100%; inhibition at 1120 g/ha (Seedling johnsongrass [7]): 70%; inhibition at 1120 g/ha (Velvetleaf [8]): 100%; inhibition at 1120 g/ha (Wild buckwheat [9]): 90%; inhibition at 1120 g/ha (Yellow nutsedge [10]): 20%; inhibition at 1120 g/ha (Annual bluegrass [11]): 20%; inhibition at 1120 g/ha (Barnyardgrass [12]): 40%; inhibition at 1120 g/ha (Cocklebur [13]): 100%; inhibition at 1120 g/ha (Downy Brome [14]): 30%; inhibition at 1120 g/ha (Indian Mustard [15]): 40%; inhibition at 1120 g/ha (Morningglory [16]): 100%; inhibition at 1120 g/ha (Seedling johnsongrass [17]): 70%; inhibition at 1120 g/ha (Velvetleaf [18]): 100%; inhibition at 1120 g/ha (Wild buckwheat [19]): 100%; inhibition at 1120 g/ha (Yellow nutsedge [20]): 20%
Cn1nc(C(F)(F)F)c(Cl)c1-c1ccc(F)cc1F [Compound 75]	0%	20%	10%	20%	30%	90%	50%	80%	50%	20%	0%	0%	0%	0%	0%	10%	0%	0%	60%	0%	
Cc1cc(-c2c(Cl)c(C(F)F)nn2C)c(F)cc1Cl [Compound 64]	90%	80%	10%	90%	100%	80%	80%	100%	100%	10%	20%	30%	20%	0%	20%	60%	20%	60%	80%	0%	
